We go through nine molecules from patent US20240270762A1, “PENICILLIN-BINDING PROTEIN INHIBITORS” (priority 2021, published 2024).

For assay [1], the system named is K. pneumoniae SI-117. The assay is described as follows: microbe, parasite or virus in culture. The class given is cell-based. To be noted: Klebsiella pneumoniae, SI117, read-out: MIC K. pneumoniae SI-117.
Assay [2] deals with T1, PBP3 from Pseudomonas aeruginosa (PAO1) (Pseudomonas aeruginosa, UniProt G3XD46).
T1 construct: made in house
T1 sequence (G3XD46 whole entry): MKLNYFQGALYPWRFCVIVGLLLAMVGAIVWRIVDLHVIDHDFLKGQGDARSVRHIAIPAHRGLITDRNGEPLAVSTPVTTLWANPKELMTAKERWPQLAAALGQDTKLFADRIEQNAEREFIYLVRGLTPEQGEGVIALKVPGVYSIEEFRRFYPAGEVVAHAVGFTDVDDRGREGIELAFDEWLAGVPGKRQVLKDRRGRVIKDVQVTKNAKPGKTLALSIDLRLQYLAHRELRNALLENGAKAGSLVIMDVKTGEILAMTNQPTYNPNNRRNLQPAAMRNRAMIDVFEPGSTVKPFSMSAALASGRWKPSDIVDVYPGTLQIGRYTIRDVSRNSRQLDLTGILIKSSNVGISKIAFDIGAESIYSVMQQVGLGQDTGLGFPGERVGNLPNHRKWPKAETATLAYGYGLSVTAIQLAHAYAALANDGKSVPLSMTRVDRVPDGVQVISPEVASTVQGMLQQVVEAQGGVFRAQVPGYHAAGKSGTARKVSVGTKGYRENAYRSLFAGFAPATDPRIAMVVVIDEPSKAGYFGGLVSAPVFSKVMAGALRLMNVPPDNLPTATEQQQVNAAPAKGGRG
Nature of the assay: Bocillin-FL fluorescence polarization competition binding, P. aeruginosa PBP3. To be noted: Binding affinity to P. aeruginosa PBP3; fluorescence polarization competition binding assay using Bocillin-FL; read-out: P. aeruginosa PBP3 Potency. The method, boiled down:
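Purified PBPs pre-incubated with inhibitor (E. coli PBP3 1.5 μM, 30 min; P. aeruginosa PBP3 0.75 μM, A. baumannii PBP1a 1 μM and PBP3 0.2 μM, 15 min), then Bocillin-FL 0.1 μM (0.05 μM for PBP1a) added; FP read up to 60 min. EC50 = concentration halving bound Bocillin-FL.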
For orientation: In fluorescence polarisation assays a small probe gives low polarisation when free and higher when bound to something large.

Assay [3] has as its system K. pneumoniae UMM. Nature of the assay: microbe, parasite or virus in culture. The format is cell-based. To be noted: Klebsiella pneumoniae, read-out: MIC K. pneumoniae UMM.
Assay [4] deals with E. coli AG100A. The assay is described as follows: Broth microdilution MIC in CAMHB. The class given is cell-based. To be noted: Escherichia coli, read-out: MIC E. coli AG100A. On the technique in general: Dilution methods test growth across graded concentrations, often in twofold steps.
Assay [5] relates to N. gonorrhoeae WHO K. The assay is described as follows: Liquid broth MIC in Fastidious broth. To be noted: Neisseria gonorrhoeae, read-out: Minimum Inhibitory Concentration (MIC), N. gonorrhoeae WHO K.
Assay [6] has as its system N. gonorrhoeae ATCC 49226. Nature of the assay: Liquid broth MIC in Fastidious broth. To be noted: Neisseria gonorrhoeae, ATCC49226, read-out: Minimum Inhibitory Concentration (MIC), N. gonorrhoeae ATCC 49226.
For assay [7], the system named is P. aeruginosa ATCC 27853. The assay is described as follows: microbe, parasite or virus in culture. To be noted: Pseudomonas aeruginosa, ATCC27853, read-out: MIC P. aeruginosa ATCC 27853. The format is cell-based.
Assay [8] has as its system N. gonorrhoeae WHO Q. The assay is described as follows: Liquid broth MIC in Fastidious broth. To be noted: Neisseria gonorrhoeae, read-out: Minimum Inhibitory Concentration (MIC), N. gonorrhoeae WHO Q.
In assay [9] the test system is K. pneumoniae 848844. The assay is described as follows: microbe, parasite or virus in culture. The format is cell-based. To be noted: Klebsiella pneumoniae, 848844, read-out: MIC K. pneumoniae 848844.
The test system of assay [10] is A. baumannii ATCC 19606. The assay is described as follows: microbe, parasite or virus in culture. The format is cell-based. To be noted: Acinetobacter baumannii, ATCC19606, read-out: MIC, A. baumannii ATCC 19606.
The test system of assay [11] is N. gonorrhoeae FA1090. Nature of the assay: Liquid broth MIC in Fastidious broth. To be noted: Neisseria gonorrhoeae, FA1090, read-out: Minimum Inhibitory Concentration (MIC), N. gonorrhoeae FA 1090.
The subject of assay [12] is N. gonorrhoeae WHO L. The assay is described as follows: Liquid broth MIC in Fastidious broth. To be noted: Neisseria gonorrhoeae, read-out: Minimum Inhibitory Concentration (MIC), N. gonorrhoeae WHO L.
For assay [13], the system named is E. coli ATCC 25922. Nature of the assay: microbe, parasite or virus in culture. To be noted: Escherichia coli, ATCC25922, read-out: MIC E. coli 25922. The class given is cell-based.
Assay [14] relates to P. aeruginosa ATCC 35151. Nature of the assay: microbe, parasite or virus in culture. The class given is cell-based. To be noted: Pseudomonas aeruginosa, ATCC35151, read-out: MIC P. aeruginosa ATCC 35151.
Assay [15] deals with N. gonorrhoeae CDC-0197. Nature of the assay: Liquid broth MIC in Fastidious broth. To be noted: Neisseria gonorrhoeae, CDC0197, read-out: Minimum Inhibitory Concentration (MIC), N. gonorrhoeae CDC-0197.
Assay [16] has as its system E. coli 901C. Nature of the assay: microbe, parasite or virus in culture. The format is cell-based. To be noted: Escherichia coli, read-out: MIC E. coli 901C.

Values after ≈ are worked out from the molar mass of the structure shown.

Regarding `Nc1ncc(C(=O)N[C@@H](C(=O)N[C@H]2Cc3cccc(C(=O)O)c3OB2O)c2ccc(P(=O)(O)O)cc2)s1` (racemic) [Example 50, (R)-3-((S)-2-(2-aminothiazole-5-carboxamido)-2-(4-phosphonophenyl)acetamido)-2-hydroxy-3,4-dihydro-2H-benzo[e][1,2]oxaborinine-8-carboxylic acid and (R)-3-((R)-2-(2-aminothiazole-5-carboxamido)-2-(4-phosphonophenyl)acetamido)-2-hydroxy-3,4-dihydro-2H-benzo[e][1,2]oxaborinine-8-carboxylic acid], the MIC is over 128 µg/mL in assay [1]; over 128 µg/mL in assay [3]; over 128 µg/mL in assay [4]; 16 to 32 µg/mL (≈ 29.3 to 58.6 µM) in [5]; 4 to 8 µg/mL (≈ 7.32 to 14.6 µM) in [6]; over 128 µg/mL in [7]. Also, the MIC in assay [8] is 16 to 32 µg/mL (≈ 29.3 to 58.6 µM); in assay [9], over 128 µg/mL; in assay [10], over 128 µg/mL; in [11] it was 1 to 2 µg/mL (≈ 1.83 to 3.66 µM); in [12] it was 16 to 32 µg/mL (≈ 29.3 to 58.6 µM); in assay [13], over 128 µg/mL. In addition, the MIC in [14] lay within 2 to 4 µg/mL (≈ 3.66 to 7.32 µM); in [15], 16 to 32 µg/mL (≈ 29.3 to 58.6 µM); in assay [16], 8 to 16 µg/mL (≈ 14.6 to 29.3 µM). For the same molecule, in assay [2], the IC50 is under 10 µM.

Turning to `Nc1nc(C(=O)N[C@@H](C(=O)N[C@H]2Cc3cccc(C(=O)O)c3OB2O)c2ccc(P(=O)(O)O)cc2)cs1` (racemic) [Example 51, (R)-3-((S)-2-(2-aminothiazole-4-carboxamido)-2-(4-phosphonophenyl)acetamido)-2-hydroxy-3,4-dihydro-2H-benzo[e][1,2]oxaborinine-8-carboxylic acid and (R)-3-((R)-2-(2-aminothiazole-4-carboxamido)-2-(4-phosphonophenyl)acetamido)-2-hydroxy-3,4-dihydro-2H-benzo[e][1,2]oxaborinine-8-carboxylic acid], the MIC in [1] is over 128 µg/mL; in assay [3], 32 to 64 µg/mL (≈ 58.6 to 117 µM); in assay [4], 32 to 64 µg/mL (≈ 58.6 to 117 µM); in assay [5], 1 to 2 µg/mL (≈ 1.83 to 3.66 µM); in assay [6], under 1 µg/mL; in assay [7], over 128 µg/mL. The MIC in [8] was 1 to 2 µg/mL (≈ 1.83 to 3.66 µM); in assay [9], over 128 µg/mL; in [10], over 128 µg/mL; in assay [11] it was under 1 µg/mL; in assay [12], 4 to 8 µg/mL (≈ 7.32 to 14.6 µM); in assay [13], over 128 µg/mL. Further, the MIC in assay [14] was 2 to 4 µg/mL (≈ 3.66 to 7.32 µM); in assay [15], under 1 µg/mL; in assay [16] it was under 1 µg/mL. For the same molecule, the IC50 in assay [2] is under 10 µM.

As for `CCN1CCN(C(=O)N[C@@H](C(=O)N[C@H]2Cc3cccc(C(=O)O)c3OB2O)c2ccc(P(=O)(O)O)c(F)c2)C(=O)C1=O` (single isomer, unassigned) [Example 7], the MIC in assay [1] was over 128 µg/mL; in assay [3], 32 to 64 µg/mL (≈ 52.8 to 106 µM); in assay [4], 8 to 16 µg/mL (≈ 13.2 to 26.4 µM); in [5], under 1 µg/mL; in assay [6], under 1 µg/mL; in assay [7], 32 to 64 µg/mL (≈ 52.8 to 106 µM). For the same molecule, the MIC in [8] was under 1 µg/mL; in [9], over 128 µg/mL; in assay [10], 8 to 16 µg/mL (≈ 13.2 to 26.4 µM); in assay [11], under 1 µg/mL; in assay [12] it was under 1 µg/mL; in assay [13], 32 to 64 µg/mL (≈ 52.8 to 106 µM). In addition, the MIC in [14], in [15] and in assay [16] was under 1 µg/mL each time.

For the molecule `O=C(O)c1c(F)ccc2c1OB(O)[C@@H](NC(=O)C(NC(=O)N1CCN(Cc3ccc(O)c(O)c3Cl)C(=O)C1=O)c1ccc(P(=O)(O)O)c(F)c1)C2` (stereo partly drawn) [Example 23, (3R)-3-(2-(4-(2-chloro-3,4-dihydroxybenzyl)-2,3-dioxopiperazine-1-carboxamido)-2-(3-fluoro-4-phosphonophenyl)acetamido)-7-fluoro-2-hydroxy-3,4-dihydro-2H-benzo[e][1,2]oxaborinine-8-carboxylic acid], the IC50 in assay [2] is under 10 µM. Further, the MIC in [5] is under 1 µg/mL; in [6], under 1 µg/mL; in assay [8] it was under 1 µg/mL; in assay [11], under 1 µg/mL; in assay [12], 4 to 8 µg/mL (≈ 5.31 to 10.6 µM); in [15] it was under 1 µg/mL.

As to `O=C(O)c1cccc2c1OB(O)[C@@H](NC(=O)C(NC(=O)N1CCN(Cc3ccc(O)c(O)c3Cl)C(=O)C1=O)c1ccc(P(=O)(O)O)cc1)C2` (stereo partly drawn) [Example 24, (3R)-3-(2-(4-(2-chloro-3,4-dihydroxybenzyl)-2,3-dioxopiperazine-1-carboxamido)-2-(4-phosphonophenyl)acetamido)-2-hydroxy-3,4-dihydro-2H-benzo[e][1,2]oxaborinine-8-carboxylic acid], the IC50 in assay [2] is under 10 µM. For the same molecule, the MIC in assay [5] was 4 to 8 µg/mL (≈ 5.58 to 11.2 µM); in [6], under 1 µg/mL; in assay [8], 1 to 2 µg/mL (≈ 1.4 to 2.79 µM); in assay [11], under 1 µg/mL; in assay [12], 4 to 8 µg/mL (≈ 5.58 to 11.2 µM); in assay [15], 1 to 2 µg/mL (≈ 1.4 to 2.79 µM).

As to `O=C(O)c1c(F)ccc2c1OB(O)[C@@H](NC(=O)C(NC(=O)N1CCN(Cc3cc(F)c(O)c(O)c3Cl)C(=O)C1=O)c1ccc(P(=O)(O)O)cc1)C2` (stereo partly drawn) [Example 45, (3R)-3-(2-(4-(2-chloro-5-fluoro-3,4-dihydroxybenzyl)-2,3-dioxopiperazine-1-carboxamido)-2-(4-phosphonophenyl)acetamido)-7-fluoro-2-hydroxy-3,4-dihydro-2H-benzo[e][1,2]oxaborinine-8-carboxylic acid], the IC50 in [2] is under 10 µM. The MIC in assay [5] is 1 to 2 µg/mL (≈ 1.33 to 2.66 µM); in assay [6], under 1 µg/mL; in assay [8], 1 to 2 µg/mL (≈ 1.33 to 2.66 µM); in [11], under 1 µg/mL; in assay [12], 4 to 8 µg/mL (≈ 5.31 to 10.6 µM); in [15], 1 to 2 µg/mL (≈ 1.33 to 2.66 µM).

`O=C(O)c1c(F)ccc2c1OB(O)[C@@H](NC(=O)C(NC(=O)N1CCN(Cc3ccc(O)c(O)c3Cl)C1=O)c1ccc(P(=O)(O)O)cc1)C2` (stereo partly drawn) [Example 46, (3R)-3-(2-(3-(2-chloro-3,4-dihydroxybenzyl)-2-oxoimidazolidine-1-carboxamido)-2-(4-phosphonophenyl)acetamido)-7-fluoro-2-hydroxy-3,4-dihydro-2H-benzo[e][1,2]oxaborinine-8-carboxylic acid]: the IC50 in assay [2] was under 10 µM. Further, the MIC in [5] was 1 to 2 µg/mL (≈ 1.41 to 2.83 µM); in [6], under 1 µg/mL; in assay [8], under 1 µg/mL; in assay [11] it was under 1 µg/mL; in [12] it was 4 to 8 µg/mL (≈ 5.66 to 11.3 µM); in assay [15], under 1 µg/mL.

Take `O=C(N[C@@H](C(=O)N[C@H]1Cc2cccc(C(=O)O)c2OB1O)c1ccc(P(=O)(O)O)cc1)c1ccc(O)c(O)c1Cl` [Example 49, (R)-3-((R)-2-(2-chloro-3,4-dihydroxybenzamido)-2-(4-phosphonophenyl)acetamido)-2-hydroxy-3,4-dihydro-2H-benzo[e][1,2]oxaborinine-8-carboxylic acid]: the IC50 in assay [2] was over 250 µM.

On to `O=C(NCCN1CCN(C(=O)NC(C(=O)N[C@H]2Cc3ccc(F)c(C(=O)O)c3OB2O)c2ccc(P(=O)(O)O)cc2)C(=O)C1=O)c1ccc(O)c(O)c1Cl` (stereo partly drawn) [Example 120, (3R)-3-(2-(4-(2-(2-chloro-3,4-dihydroxybenzamido)ethyl)-2,3-dioxopiperazine-1-carboxamido)-2-(4-phosphonophenyl)acetamido)-7-fluoro-2-hydroxy-3,4-dihydro-2H-benzo[e][1,2]oxaborinine-8-carboxylic acid], for which, in assay [2], the IC50 was under 10 µM.
